For orientation: half-life means the time in which the quantity being followed falls by half.

The nature of data set [1]: hygroscopicity testing via dynamic vapor sorption (DVS). Type of data set: physicochemical. The conditions noted are these: for hygroscopicity classification: DVS, class based on mass gain at 85% RH; for absorption of water (DVS): storage at 95% relative humidity for five hours. How it is done:
Sorption isotherms were obtained using an SPS11-100n Sorptions Prufsystem from ProUmid (formerly Projekt Messtechnik). About 5 mg to about 20 mg of sample were placed into an aluminum sample plan on top of a microbalance and allowed to equilibrate at 50% relative humidity (RH) before starting the following applied measurement program. Humidity change rates of 5% per hour were used. The applied measurement program can be described as follows: • (1) 2 h at 50% RH • (2) 50→0% RH (5%/h); 5 h at 0% RH • (3) 0→95% RH (5%/h); 5 h at 95% RH • (4) 95→0% RH (5%/h); 5 h at 0% RH • (5) 0→95% RH (5%/h); 5 h at 95% RH • (6) 95→50% RH (5%/h); 2 h at 50% RH. The sample was recovered after completion of the isotherm and re-analyzed by XRPD. Hygroscopicity was classified based on the mass gain at 85% relative humidity (RH) relative to the initial mass as follows: deliquescent (sufficient water adsorbed to form a liquid), very hygroscopic (mass increase […]), hygroscopic (mass increase <15% but ≥2%), slightly hygroscopic (mass increase <2% but ≥0.2%), or non-hygroscopic (mass increase <0.2%).

The format of data set [2] is physicochemical. The procedure: 53 mg of Sample 42 (Form A) and 47 mg of Sample (Form C) were suspended in 1 mL of an ethyl acetate/heptane (1:3) mixture at room temperature. After two hours of stirring at room temperature, one additional mL of the solvent mixture was added to the suspension. After another 1 hour of stirring, the suspension was seeded with Sample 42 and Sample 55 (about 10-20 mg). Further stirring was conducted at room temperature for one week. Then the suspension was filtered using a centrifugal unit filter (PTFE, 0.2 μm, 5000 rpm, room temperature).
The remaining substance from Sample 56 (approx. 42 mg) was further equilibrated in 0.5 mL of an ethyl acetate/heptane (1:3) mixture at room temperature After one month of stirring, the suspension was filtered using a centrifugal unit filter (PTFE, 0.2 μm, 5000 rpm, room temperature). […] The resulting Crystalline Form C of Example 27a is herein referred to as Sample 56A.
71 mg of Sample 42 (Form A) and 73 mg of Sample 55 (Form C) were suspended in 1 mL of an ethyl acetate/heptane (1:3) mixture at 60° C. After two hours of stirring at 60° C., one additional mL of the solvent mixture was added to the suspension. After another 1 hour of stirring, the suspension was seeded with Samples 42 and 55 (about 10-20 mg). Further stirring was conducted at 60° C. After four days of stirring, a solution with material on the glass side was obtained. Approx. […]

Data set [3] in a line: solubility in common organic solvents. Type of data set: physicochemical.
The conditions of data set [4]: in vivo; cited from earlier work.
The test system of data set [5] is fleas (Ctenocephalides felis). The conditions noted are these: in vitro ingesting activity; cited from earlier work.

Bounds are passed on as bounds.

Consider `Cc1cc(C2=NO[C@@](c3cc(C(F)(F)F)cc(Cl)c3F)(C(F)(F)F)C2)ccc1C(=O)NCC(=O)NCC(F)(F)F` [Crystalline Form A, 2-methyl-N-[2-oxo-2-(2,2,2-trifluoroethylamino)ethyl]-4-[(5S)-5-[3-chloro-2-fluoro-5-(trifluoromethyl)phenyl]-5-(trifluoromethyl)-4H-isoxazol-3-yl]benzamide], for which, in data set [1], the hygroscopicity classification entry is “slightly hygroscopic (slightly hygroscopic (mass increase <2% but ≥0.2%))” and the “absorption of water (DVS)” value is ~0.5%. Besides, the “relative stability of Form A versus Form C” value in data set [2] is reported as “stable form at room temperature”.
Consider `Cc1cc(C2=NO[C@@](c3cc(C(F)(F)F)cc(Cl)c3F)(C(F)(F)F)C2)ccc1C(=O)NCC(=O)NCC(F)(F)F` [Crystalline Form B, 2-methyl-N-[2-oxo-2-(2,2,2-trifluoroethylamino)ethyl]-4-[(5S)-5-[3-chloro-2-fluoro-5-(trifluoromethyl)phenyl]-5-(trifluoromethyl)-4H-isoxazol-3-yl]benzamide], for which, in data set [1], the “absorption of water (DVS)” value is on record as “up to 1.2%”.
`Cc1cc(C2=NO[C@@](c3cc(C(F)(F)F)cc(Cl)c3F)(C(F)(F)F)C2)ccc1C(=O)NCC(=O)NCC(F)(F)F` [Form C, 2-methyl-N-[2-oxo-2-(2,2,2-trifluoroethylamino)ethyl]-4-[(5S)-5-[3-chloro-2-fluoro-5-(trifluoromethyl)phenyl]-5-(trifluoromethyl)-4H-isoxazol-3-yl]benzamide]: the “relative stability of Form A versus Form C” value in data set [2] is “stable form at 30° and above”.
With `Cc1cc(C2=NO[C@@](c3cc(C(F)(F)F)cc(Cl)c3F)(C(F)(F)F)C2)ccc1C(=O)NCC(=O)NCC(F)(F)F` [amorphous form of the compound of Formula 1] [2-methyl-N-[2-oxo-2-(2,2,2-trifluoroethylamino)ethyl]-4-[(5S)-5-[3-chloro-2-fluoro-5-(trifluoromethyl)phenyl]-5-(trifluoromethyl)-4H-isoxazol-3-yl]benzamide], in data set [3], the “solubility in common organic solvents” value is reported as “high solubility”. In data set [1], the hygroscopicity classification result was “slightly hygroscopic (slightly hygroscopic (mass increase <2% but ≥0.2%))” and the “absorption of water (DVS)” value was ~1.5%. Moreover, in data set [1] (XRPD after DVS), the “solid form after DVS measurement (XRPD)” value is listed as “No crystallization occurred”.
With `Cc1cc(C2=NO[C@@](c3cc(C(F)(F)F)cc(Cl)c3F)(C(F)(F)F)C2)ccc1C(=O)NCC(=O)NCC(F)(F)F` [compound of Formula 1, 2-methyl-N-[2-oxo-2-(2,2,2-trifluoroethylamino)ethyl]-4-[(5S)-5-[3-chloro-2-fluoro-5-(trifluoromethyl)phenyl]-5-(trifluoromethyl)-4H-isoxazol-3-yl]benzamide], in data set [4], the half-life is recorded as 50 days. In data set [5], the EC50 was < 1 ppm.

The values are drawn from patent publication US20240383867A1, “CRYSTALLINE FORMS OF ISOXAZOLINE COMPOUND” (ELANCO US, INC., priority 2021, published 2024).
